Assay results as given in patent US7189840B2, “Oncosuppressive gene” (Novuspharma S.p.A., priority 2001, dated 2007).

Test system: A2780 cells
Experiment: Expression of the isolated cDNA fragment (differential display, RT-PCR) in A2780 cells treated with cytotoxic agents
Format: cell-based, human
Conditions: for expression of the cDNA fragment: A2780 cells after treatment with the compound
Experimental: Human ovary carcinoma A2780 cells were treated for 1 hour with an antitumor derivative of distamycin-A at its 50% growth-inhibiting concentration; at the end of the treatment and after 6 and 24 hours the total RNA was isolated by column extraction (SVTotal RNA, Promega Italia) and reverse-transcribed using poly-T primers as indicated in the differential-display kit (GenHunter). The fragments thus obtained were separated on denaturing polyacrylamide gel and detected by autoradiography. The bands whose intensity differed from controls were isolated and purified. One of them (fragment 1), after purification and ^32P-labeling (rediprime kit, Amersham), was used as probe in Northern Blot experiments. The RNA from the same cells was separated on agarose gel, transferred onto nylon membrane and hybridized with the probe.
Cells A2780 were treated with taxol and cisplatin (DDP) and the RNA was extracted before and 24 hours after the treatment. […] A fragment of beta-actin gene was used as internal control.

Compound | expression of the cDNA fragment | specific mRNA band by RT-PCR versus control cells (A2780 cells, RNA 24 hours after treatment, beta-actin internal control)
O=c1[nH]cc(F)c(=O)[nH]1 [fluorouracil] | increased production of the same fragment | 
COc1cccc2c1C(=O)c1c(O)c3c(c(O)c1C2=O)C[C@@](O)(C(=O)CO)C[C@@H]3O[C@H]1C[C@H](N)[C@H](O)[C@H](C)O1 [doxorubicin] | increased production of the same fragment | 
N.N.[Cl][Pt][Cl] [cisplatin] | increased production of the same fragment | more intense than that of control cells
CC(=O)O[C@H]1C(=O)[C@@]2(C)[C@H]([C@H](OC(=O)c3ccccc3)[C@]3(O)C[C@H](OC(=O)[C@H](O)[C@@H](NC(=O)c4ccccc4)c4ccccc4)C(C)=C1C3(C)C)[C@]1(OC(C)=O)CO[C@@H]1C[C@@H]2O [taxol] | increased production of the same fragment | 
